Several values for one entry are separate records, joined by “and”; a condition that tells them apart may be missing. Identical values can stand only once.
Tests used:
[1] = biological target: T1, Muscarinic acetylcholine receptor M1 (Rattus norvegicus, UniProt P08482); assay: Displacement of [3H]pirenzepine from muscarinic M1 receptor of rat cortex homogenates.
T1 sequence (P08482 whole entry): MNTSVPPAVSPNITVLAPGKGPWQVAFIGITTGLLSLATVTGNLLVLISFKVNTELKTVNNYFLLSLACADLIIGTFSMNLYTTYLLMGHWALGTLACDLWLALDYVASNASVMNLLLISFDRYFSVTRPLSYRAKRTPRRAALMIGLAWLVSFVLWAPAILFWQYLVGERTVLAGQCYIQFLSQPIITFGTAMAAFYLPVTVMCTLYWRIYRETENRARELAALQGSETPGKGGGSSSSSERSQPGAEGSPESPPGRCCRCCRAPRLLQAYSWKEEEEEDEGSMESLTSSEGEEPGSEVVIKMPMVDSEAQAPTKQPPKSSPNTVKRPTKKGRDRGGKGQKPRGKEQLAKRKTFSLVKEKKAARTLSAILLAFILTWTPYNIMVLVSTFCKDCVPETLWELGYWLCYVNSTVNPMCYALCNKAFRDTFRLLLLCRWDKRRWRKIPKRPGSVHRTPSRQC

[2] = biological target: T2, Muscarinic acetylcholine receptor M2 (Rattus norvegicus, UniProt P10980); assay: Displacement of [3H]QNB (quinuclidinyl benzylate) from muscarinic M2 receptor of rat heart homogenates.; format: tissue-based
T2 sequence (P10980 whole entry): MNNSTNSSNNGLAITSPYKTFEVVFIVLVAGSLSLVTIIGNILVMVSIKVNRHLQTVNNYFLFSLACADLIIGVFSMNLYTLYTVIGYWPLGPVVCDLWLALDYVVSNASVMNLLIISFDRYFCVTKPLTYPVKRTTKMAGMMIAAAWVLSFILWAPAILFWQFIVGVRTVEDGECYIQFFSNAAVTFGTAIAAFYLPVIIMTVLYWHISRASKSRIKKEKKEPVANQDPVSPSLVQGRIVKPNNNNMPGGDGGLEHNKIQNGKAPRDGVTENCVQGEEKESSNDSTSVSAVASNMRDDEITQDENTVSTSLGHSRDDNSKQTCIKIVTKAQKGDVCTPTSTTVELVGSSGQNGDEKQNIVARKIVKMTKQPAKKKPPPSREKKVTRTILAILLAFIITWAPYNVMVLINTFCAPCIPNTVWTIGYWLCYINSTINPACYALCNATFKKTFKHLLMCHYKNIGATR

Mus musculus = assay: Anticonvulsant activity was determined in MES model, after 1 hour post administration in mice; format: functional

Row | SMILES | Ki [1] [nM] | Ki [2] [nM] | ED50 (Mus musculus)
1 | CCN(CC)CC#CCN1C(=O)CC2(CCc3ccccc32)C1=O (stereo not drawn) | 680 | > 10000 | 
2 | CC(C)N(CC#CCN1C(=O)CC(c2ccccc2)(c2ccccc2)C1=O)C(C)C | 530 | 440 | 17.5 mg/kg and 40 µmol/kg
3 | O=C1NC(=O)C(c2ccccc2)(c2ccccc2)N1 [PHENYTOIN] |  |  | 16.2 mg/kg
4 | CC(C)N(CC#CCN1C(=O)CC2(C1=O)c1ccccc1-c1ccccc12)C(C)C | 1620 | > 10000 | 
5 | O=C1CC2(CCc3ccccc32)C(=O)N1CC#CCN1CCCC1 (stereo not drawn) | 1590 | > 10000 | > 600 mg/kg
6 | CCN(CC)CC#CCN1C(=O)CC2(C1=O)c1ccccc1-c1ccccc12 | 1630 | > 10000 | 23.7 mg/kg and 58 µmol/kg
7 | O=C1NC(c2ccccc2)(c2ccccc2)C(=O)N1CC#CCN1CCCC1 | 640 | > 10000 | 
8 | CCN(CC)CC#CCN1C(=O)CC(c2ccccc2)(c2ccccc2)C1=O | 120 | 380 | 20.1 mg/kg and 49 µmol/kg
9 | CCN(CC)CC#CCN1C(=O)NC2(CCc3ccccc32)C1=O (stereo not drawn) | 1050 | > 10000 | 55.4 mg/kg and 153 µmol/kg
10 | CCN(CC)CC#CCN1C(=O)NC(c2ccccc2)(c2ccccc2)C1=O | 380 | 950 | 83.6 mg/kg
11 | CCN(CC)CC#CCN1C(=O)c2ccccc2C1=O | 30 | 100 | 
12 | CCN(CC)CC#CCN1C(=O)CC2(C1=O)c1ccccc1CCc1ccccc12 | 460 | 2090 | 9.6 mg/kg and 22 µmol/kg
13 | CCN(CC)CC#CCN1C(=O)CC(c2ccccc2)C1=O (stereo not drawn) | 2300 | > 10000 | 48.9 mg/kg and 126 µmol/kg

From ChEMBL document CHEMBL1150993, “Design of dual acting anticonvulsant-antimuscarinic succinimide and hydantoin derivatives” (Bioorg Med Chem Lett, 1997)
